Laboratory results as given in the NIST ThermoML archive (doi:10.1021/je060271a).

Details: 303.16 K, Liquid, Vibrating tube method

CCCC(=O)OCC(COC(=O)CCC)(COC(=O)CCC)COC(=O)CCC [pentaerythritol tetrabutyrate]
Details	mass density [kg/m3]
15938 kPa	1052.3
15972 kPa	1052.3
16014 kPa	1052.4
16048 kPa	1052.3
16090 kPa	1052.4
16125 kPa	1052.5
16167 kPa	1052.5
16209 kPa	1052.5
16244 kPa	1052.5
16286 kPa	1052.6
16323 kPa	1052.5
16366 kPa	1052.5
16409 kPa	1052.7
16446 kPa	1052.6
16489 kPa	1052.7
16526 kPa	1052.7
16571 kPa	1052.7
16616 kPa	1052.7
16654 kPa	1052.7
16700 kPa	1052.7
16739 kPa	1052.8
16786 kPa	1052.8
16833 kPa	1052.9
16872 kPa	1053
16906 kPa	1052.9
16947 kPa	1053
16988 kPa	1052.9
17023 kPa	1053
17065 kPa	1053
17100 kPa	1053
17142 kPa	1053
17185 kPa	1052.9
17221 kPa	1053
17265 kPa	1053.2
17301 kPa	1053.1
17346 kPa	1053.2
17383 kPa	1053.1
17428 kPa	1053.2
17464 kPa	1053.2
17508 kPa	1053.2
17552 kPa	1053.1
17588 kPa	1053.3
17632 kPa	1053.3
17669 kPa	1053.4
17713 kPa	1053.5
17758 kPa	1053.5
17796 kPa	1053.4
17840 kPa	1053.4
17887 kPa	1053.5
17924 kPa	1053.4
17970 kPa	1053.5
18009 kPa	1053.6
18056 kPa	1053.6
18094 kPa	1053.5
18141 kPa	1053.6
18187 kPa	1053.6
18226 kPa	1053.6
18275 kPa	1053.6
18315 kPa	1053.9
18363 kPa	1053.8
18405 kPa	1053.7
18448 kPa	1053.9
18497 kPa	1053.9
18546 kPa	1054
18588 kPa	1053.9
18638 kPa	1054
18681 kPa	1054.1
18732 kPa	1054
18784 kPa	1054
18828 kPa	1054.1
18881 kPa	1054.2
18917 kPa	1054
18955 kPa	1054
18996 kPa	1054.2
19030 kPa	1054.2
19063 kPa	1054.2
19103 kPa	1054.2
19136 kPa	1054.2
19176 kPa	1054.3
19209 kPa	1054.3
19248 kPa	1054.3
19288 kPa	1054.4
19321 kPa	1054.3
19361 kPa	1054.4
19395 kPa	1054.3
19436 kPa	1054.4
19477 kPa	1054.5
19512 kPa	1054.4
19553 kPa	1054.5
19587 kPa	1054.5
19629 kPa	1054.5
19665 kPa	1054.4
19707 kPa	1054.6
19741 kPa	1054.6
19783 kPa	1054.5
19825 kPa	1054.7
19861 kPa	1054.7
19904 kPa	1054.6
19940 kPa	1054.8
19985 kPa	1054.6
20021 kPa	1054.8
20064 kPa	1054.8
20101 kPa	1054.9
20144 kPa	1054.8
20189 kPa	1054.9
20226 kPa	1054.9
20270 kPa	1054.9
20308 kPa	1054.8
20479 kPa	1055
20525 kPa	1054.9
20562 kPa	1055.1
20609 kPa	1055.1
20648 kPa	1055.1
20695 kPa	1055.1
20735 kPa	1055.3
20783 kPa	1055.2
20823 kPa	1055.3
20871 kPa	1055.3
20911 kPa	1055.3
20958 kPa	1055.2
20997 kPa	1055.3
21046 kPa	1055.4
21087 kPa	1055.4
21317 kPa	1055.5
21366 kPa	1055.5
21458 kPa	1055.5
21510 kPa	1055.6
21552 kPa	1055.6
21603 kPa	1055.7
21646 kPa	1055.7
21698 kPa	1055.6
21749 kPa	1055.8
21792 kPa	1055.7
21845 kPa	1055.9
21889 kPa	1055.9
21942 kPa	1055.8
21986 kPa	1055.9
22040 kPa	1055.9
22093 kPa	1056
22138 kPa	1056
22194 kPa	1056
22240 kPa	1056.1
22297 kPa	1056.1
22344 kPa	1056.2
22399 kPa	1056.2
22444 kPa	1056.1
22501 kPa	1056.1
22549 kPa	1056.2
22606 kPa	1056.2
22664 kPa	1056.3
22714 kPa	1056.3
22776 kPa	1056.4
22829 kPa	1056.3
22885 kPa	1056.5
22917 kPa	1056.4
22959 kPa	1056.5
22993 kPa	1056.4
23026 kPa	1056.4
23065 kPa	1056.6
23104 kPa	1056.5
23137 kPa	1056.6
23177 kPa	1056.6
23211 kPa	1056.7
23251 kPa	1056.7
23285 kPa	1056.7
23325 kPa	1056.7
23359 kPa	1056.7
23399 kPa	1056.7
23440 kPa	1056.7
23475 kPa	1056.8
23516 kPa	1056.9
23551 kPa	1056.9
23593 kPa	1056.9
23628 kPa	1056.8
23670 kPa	1056.9
23705 kPa	1056.8
23747 kPa	1056.8
23782 kPa	1057
23825 kPa	1057
23860 kPa	1057
23902 kPa	1057.1
23946 kPa	1057.1
23981 kPa	1057
24023 kPa	1057.1
24066 kPa	1057
24101 kPa	1057.2
24145 kPa	1057.1
24182 kPa	1057.3
24225 kPa	1057.1
24269 kPa	1057.2
24306 kPa	1057.2
24350 kPa	1057.3
24387 kPa	1057.4
24432 kPa	1057.3
24470 kPa	1057.3
24515 kPa	1057.5
24560 kPa	1057.4
24597 kPa	1057.4
24642 kPa	1057.4
24680 kPa	1057.5
24726 kPa	1057.6
24772 kPa	1057.6
24810 kPa	1057.5
24858 kPa	1057.5
24897 kPa	1057.6
24944 kPa	1057.7
24991 kPa	1057.6
25031 kPa	1057.5
25070 kPa	1057.7
25117 kPa	1057.7
25165 kPa	1057.7
25204 kPa	1057.8
25252 kPa	1057.8
25292 kPa	1057.9
25340 kPa	1057.9
25389 kPa	1058
25431 kPa	1057.9
25481 kPa	1057.9
25523 kPa	1058
25574 kPa	1058.1
25618 kPa	1058.1
25669 kPa	1058
25712 kPa	1058.1
25765 kPa	1058.1
25816 kPa	1058.1
25851 kPa	1058.2
25889 kPa	1058.2
25926 kPa	1058.1
25957 kPa	1058
25995 kPa	1058.2
26027 kPa	1058.1
26066 kPa	1058.3
26106 kPa	1058.3
26139 kPa	1058.4
26171 kPa	1058.3
26210 kPa	1058.3
26243 kPa	1058.4
26282 kPa	1058.4
26320 kPa	1058.4
26352 kPa	1058.5
26392 kPa	1058.5
26430 kPa	1058.3
26463 kPa	1058.4
26504 kPa	1058.6
26538 kPa	1058.6
26574 kPa	1058.6
26615 kPa	1058.5
26648 kPa	1058.6
26688 kPa	1058.6
26728 kPa	1058.6
26761 kPa	1058.6
26802 kPa	1058.6
26836 kPa	1058.7
26876 kPa	1058.8
26918 kPa	1058.7
26952 kPa	1058.7
26994 kPa	1058.8
27028 kPa	1058.8
27070 kPa	1058.9
27110 kPa	1058.8
27145 kPa	1058.8
27188 kPa	1058.8
27223 kPa	1059.1
27266 kPa	1058.9
27301 kPa	1059
27343 kPa	1058.9
27385 kPa	1059.2
27420 kPa	1059
27464 kPa	1059
27499 kPa	1059
27542 kPa	1059.1
27585 kPa	1059.1
27622 kPa	1059.2
27666 kPa	1059.2
27702 kPa	1059.2
27747 kPa	1059.1
27784 kPa	1059.3
27828 kPa	1059.2
27865 kPa	1059.3
27909 kPa	1059.4
27953 kPa	1059.4
27991 kPa	1059.3
28035 kPa	1059.4
28079 kPa	1059.4
28117 kPa	1059.3
28162 kPa	1059.4
28200 kPa	1059.5
28244 kPa	1059.4
28290 kPa	1059.5
28328 kPa	1059.5
28374 kPa	1059.6
28419 kPa	1059.7
